# Patent US11028128B2, “Inhibition of the aggregation of transthyretin by specific binding of peptides to aggregation-driving segments” (THE REGENTS OF THE UNIVERSITY OF CALIFORNIA, priority 2016, dated 2021)
# Where no end group is shown, it is not given here.
# Legend:
# [1] = target: recombinant wild type TTR and ATTR-D38A seeds (Homo sapiens, UniProt P02766); conditions: 0.5 mg/ml recombinant TTR, 30 ng/μl ATTR-D38A seeds, increasing compound concentrations
# Method: (§1) Fibril extracts were used to seed the formation of new aggregates from recombinant TTR. In order to further purify the extracts, they were treated with 1% sodium dodecyl sulfate and the soluble fraction was discarded after centrifugation at 13,000 rpm for 5 minutes. This process was repeated two times. The sample was washed with distilled water three times by centrifugation, and then sonicated in cycles of 5 seconds on, 5 seconds off, for a total of 10 minutes, at minimum intensity (18%). The protein content was measured using the Pierce™ BCA Protein Assay Kit (ThermoFisher Scientific). Seeds were added to 0.5 mg/ml recombinant TTR in a final volume of 200 μl of 5 μM thioflavin T, 10 mM Sodium Acetate pH 4.3, 100 mM KCl, and 10 mM EDTA. Unless labeled otherwise, cardiac seeds were analyzed at 30 ng/μl concentration and seeds extracted from adipose tissue were analyzed at 5 ng/μl. Thioflavin fluorescence emission was measured at 482 nm with absorption at 440 nm in a Varioskan Flash (ThermoFisher Scientific) or FLUOstar Omega (BMG LabTech) plate readers. Plates were incubated at 37° C. for 20-72 h as labeled with cycles of 9 min shake (700 rpm double orbital) and 1 min rest throughout the incubation. Measurements were taken with automatic gain if read in Varioskan Flash, or with a manual gain of 1,000 if read in FLUOstar Omega, every 10 min, bottom read. We normalized all our assays by subtracting ThT signal at initial point of incubation. Figures show ThT signal in arbitrary units (a.u.). Fibril formation was confirmed by TEM.
# (§2) Amyloid seeding assays were performed as described above. 180 μM peptide was added to 0.5 mg/ml recombinant wild type TTR and 30 ng/μl ATTR-D38A seeds. Amyloid seeding was measured after 24 hour of incubation at 37° C. by ThT fluorescence. Thioflavin T signal obtained in the absence of peptide was considered 100%.
# [2] = target: T1, recombinant wild type TTR (Homo sapiens, UniProt P02766); test: TTR aggregation assay in the absence of seeds (absorbance at 400 nm); assay type: biochemical; conditions: 1 mg/ml recombinant wild type TTR, increasing amounts of stabilizer, 4 days
# T1 construct: made in house; host or cells: E. coli
# Method: Next we tested the ability of compounds and mutations that stabilize native, tetrameric TTR to halt amyloid formation induced by disease-related amyloid seeds. […] For these aggregation assays, we incubated 1 mg/ml recombinant wild type TTR with increasing amounts of stabilizers.
# TTR aggregation assays are described previously (32). […] Protein aggregation was followed by absorbance at 400 nm, anti-TTR immuno-dot blot of the insoluble fraction, and/or transmission electron microscopy.
# [3] = test system: recombinant wild type TTR and ATTR-D38A seeds; conditions: 180 μM peptide, 0.5 mg/ml recombinant wild type TTR, 30 ng/μl ATTR-D38A seeds, 37° C.; N-methylated peptide as noted in the cell
# Method: as §1, §2
Molecule,fibril formation with ATTR-D38A ex-vivo seeds in presence of stabilizer [1],TTR aggregation in the absence of seeds [2],"B. ThT signal (20h, no inhibitor was normalized to 100%, SD = 11.42) [3]"
O=C(O)c1cc(-c2ccc(F)cc2F)ccc1O [diflunisal],did not reduce or delay fibril formation,considerably diminished in a dose-dependent manner,–
O=C(O)c1ccc2nc(-c3cc(Cl)cc(Cl)c3)oc2c1 [tafamidis],did not reduce or delay fibril formation,considerably diminished in a dose-dependent manner,–
RRRRPFHEHAEVVFTA [TabF1],–,–,60.45 ± 3.90 (N-me-A12) %
RRRRPYSYSTTAVVTN (not fully specified (residue 12)) [TabH1],–,–,32.48 ± 2.39 (N-me-E11) %
